19 molecules from PubChem BioAssay AID248 (DTP/NCI, 2004) can be followed below.

The assay has as its system L1210 leukemia ip in BDF1 mice, survival T/C. Briefly: NCI In Vivo Anticancer Drug Screen. Data for tumor model L1210 Leukemia (intraperitoneal) in B6D2F1 (BDF1) mice. To be noted: endpoint: mean survival time, higher = longer survival. In outline:
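Each compound was tested against a transplantable tumor grown in mice. The endpoint was survival, with treated animals benchmarked against vehicle controls as a simple ratio.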

The mark [1] stands for this setting: dose: 12.5 mg/kg/injection, schedule: Q01DX009 (ip), vehicle: Klucel (hydroxypropylcellulose) (HPC).
[2] abbreviates: dose: 12.5 mg/kg/injection, schedule: Q04DX003 (ip), vehicle: Klucel (hydroxypropylcellulose) (HPC).
The mark [3] stands for this setting: dose: 25.0 mg/kg/injection, schedule: Q01DX009 (ip), vehicle: Klucel (hydroxypropylcellulose) (HPC).
Where [4] appears, read: dose: 25.0 mg/kg/injection, schedule: Q04DX003 (ip), vehicle: Klucel (hydroxypropylcellulose) (HPC).
The mark [5] stands for this setting: dose: 50.0 mg/kg/injection, schedule: Q04DX003 (ip), vehicle: Klucel (hydroxypropylcellulose) (HPC).
Where [6] appears, read: dose: 100.0 mg/kg/injection, schedule: Q04DX003 (ip), vehicle: Klucel (hydroxypropylcellulose) (HPC).
Where [7] appears, read: dose: 200.0 mg/kg/injection, schedule: Q04DX003 (ip), vehicle: Klucel (hydroxypropylcellulose) (HPC).
The mark [8] stands for this setting: dose: 400.0 mg/kg/injection, schedule: Q04DX003 (ip), vehicle: Klucel (hydroxypropylcellulose) (HPC).
The mark [9] stands for this setting: dose: 100.0 mg/kg/injection, schedule: Q01DX001 (ip), vehicle: saline.
Where [10] appears, read: dose: 200.0 mg/kg/injection, schedule: Q01DX001 (ip), vehicle: saline.
Where [11] appears, read: dose: 400.0 mg/kg/injection, schedule: Q01DX001 (ip), vehicle: saline.
The mark [12] stands for this setting: dose: 100.0 mg/kg/injection, schedule: Q04DX003 (ip), vehicle: saline with Tween-80.
Where [13] appears, read: dose: 200.0 mg/kg/injection, schedule: Q04DX003 (ip), vehicle: saline with Tween-80.
Setting [14] is: dose: 100.0 mg/kg/injection, schedule: Q01DX009 (ip), vehicle: saline with Tween-80.
The mark [15] stands for this setting: dose: 200.0 mg/kg/injection, schedule: Q01DX009 (ip), vehicle: saline with Tween-80.
Where [16] appears, read: dose: 400.0 mg/kg/injection, schedule: Q01DX009 (ip), vehicle: saline with Tween-80.

Structures are written as SMILES. Several values for one entry are separate records, joined by “and”; a condition that tells them apart may be missing. Identical values can stand only once. Toxic doses and inconclusive results are not listed.

Take `O=C(NC(=O)c1cccc(Br)c1)Nc1ccccc1`: the T/C runs as follows: (dose: 264.0 mg/kg/injection, schedule: Q01DX001 (ip), vehicle: carboxymethylcellulose (CMC)) 92 % of control; (dose: 400.0 mg/kg/injection, schedule: Q01DX001 (ip), vehicle: carboxymethylcellulose (CMC)) 96 % of control; (dose: 600.0 mg/kg/injection, schedule: Q01DX001 (ip), vehicle: carboxymethylcellulose (CMC)) 90 % of control.
Consider `COc1ccc(/C=C/c2cccc[n+]2C)cc1`, for which the T/C was 89 % of control under setting [1]; 100 % of control under setting [2]; 90 % of control under setting [3]; 94 % of control under setting [4]; 100 % of control under setting [5].
For the molecule `CC(C)Nc1ccc(Nc2ccc(NC(C)C)cc2)cc1`, the T/C by setting is: (dose: 1.56 mg/kg/injection, schedule: Q04DX003 (ip), vehicle: alcohol) 102 % of control; (dose: 3.12 mg/kg/injection, schedule: Q01DX009 (ip), vehicle: alcohol) 98 % of control; (dose: 3.12 mg/kg/injection, schedule: Q04DX003 (ip), vehicle: alcohol) 109 % of control; (dose: 6.25 mg/kg/injection, schedule: Q01DX009 (ip), vehicle: alcohol) 94 % of control; (dose: 6.25 mg/kg/injection, schedule: Q04DX003 (ip), vehicle: alcohol) 105 % of control; (dose: 12.5 mg/kg/injection, schedule: Q01DX009 (ip), vehicle: alcohol) 96 % of control. Moreover, the T/C runs as follows: (dose: 12.5 mg/kg/injection, schedule: Q04DX003 (ip), vehicle: alcohol) 95 % of control; (dose: 18.0 mg/kg/injection, schedule: Q01DX009 (ip), vehicle: alcohol) 104 % of control.
In the case of `CC(C)(C)C1Sc2nc3ccccc3n2C1=O` (configuration not stated), the T/C was 101 % of control under setting [1]; 98 % of control under setting [2]; 97 % of control under setting [3]; 92 % of control under setting [4]; 96 % of control (dose: 50.0 mg/kg/injection, schedule: Q01DX009 (ip), vehicle: Klucel (hydroxypropylcellulose) (HPC)); 92 % of control under setting [5].
In the case of `CCCN(CCC)C(=O)C(=O)OCC`, the T/C reads like this: (dose: 6.25 mg/kg/injection, schedule: Q04DX003 (ip), vehicle: saline with Tween-80) 102 % of control; (dose: 12.5 mg/kg/injection, schedule: Q04DX003 (ip), vehicle: saline with Tween-80) 94 % of control; (dose: 25.0 mg/kg/injection, schedule: Q04DX003 (ip), vehicle: saline with Tween-80) 98 % of control.
Regarding `O=C(O)CCCCC(=O)c1cc(O)ccc1O`, the T/C is 102 % of control under setting [6], 104 % of control under setting [7] and 102 % of control under setting [8].
Consider `CCCCCCCC(=O)C(C)C`, for which the T/C was 95 % of control (dose: 100.0 mg/kg/injection, schedule: Q01DX009 (ip), vehicle: Klucel (hydroxypropylcellulose) (HPC)); 99 % of control under setting [6]; 98 % of control (dose: 200.0 mg/kg/injection, schedule: Q01DX009 (ip), vehicle: Klucel (hydroxypropylcellulose) (HPC)); 100 % of control under setting [7]; 102 % of control (dose: 400.0 mg/kg/injection, schedule: Q01DX009 (ip), vehicle: Klucel (hydroxypropylcellulose) (HPC)); 91 % of control under setting [8].
In the case of `COC(=O)c1[nH]cnc1/N=N/N(C)CCO`, the T/C runs as follows: (dose: 88.0 mg/kg/injection, schedule: Q01DX001 (ip), vehicle: saline) 95 % of control; under setting [9], 104 % of control; (dose: 133.0 mg/kg/injection, schedule: Q01DX001 (ip), vehicle: saline) 97 % of control; under setting [10], 101 % of control and 107 % of control; (dose: 267.0 mg/kg/injection, schedule: Q01DX009 (ip), vehicle: saline) 109 % of control; (dose: 300.0 mg/kg/injection, schedule: Q01DX001 (ip), vehicle: saline) 103 % of control. The T/C is, setting by setting: under setting [11], 102 % of control; (dose: 400.0 mg/kg/injection, schedule: Q01DX009 (ip), vehicle: saline) 100 % of control; (dose: 600.0 mg/kg/injection, schedule: Q01DX009 (ip), vehicle: saline) 109 % of control; (dose: 600.0 mg/kg/injection, schedule: Q01DX015 (ip), vehicle: saline) 157 % of control; (dose: 900.0 mg/kg/injection, schedule: Q01DX009 (ip), vehicle: saline) 111 % of control.
Take `CC(C)c1cccc(OC(=O)N(C)[Si](C)(C)C)c1`: the T/C reads like this: (dose: 5.0 mg/kg/injection, schedule: Q01DX001 (ip), vehicle: saline) 105 % of control; (dose: 10.0 mg/kg/injection, schedule: Q01DX001 (ip), vehicle: saline) 97 % of control; (dose: 20.0 mg/kg/injection, schedule: Q01DX001 (ip), vehicle: saline) 101 % of control; (dose: 40.0 mg/kg/injection, schedule: Q01DX001 (ip), vehicle: saline) 101 % of control.
Regarding `CSc1sc2ccc(S(=O)(=O)O)cc2[n+]1C`, the T/C runs as follows: under setting [12], 97 % of control; under setting [13], 94 % of control.
Turning to `CC(C)(CBr)CC(=O)NC1CCCCC1`, the T/C was 98 % of control (dose: 50.0 mg/kg/injection, schedule: Q01DX001 (ip), vehicle: saline); 98 % of control under setting [9]; 96 % of control under setting [10]; 104 % of control under setting [11].
On to `CCCCCCCCN/N=C(/C)CCCCCO`, for which the T/C is 98 % of control under setting [9], 103 % of control under setting [10] and 103 % of control under setting [11].
For `Cc1nc(N)[nH]c(=O)c1CCCc1ccccc1`, the T/C reads like this: (dose: 100.0 mg/kg/injection, schedule: Q01DX009 (ip), vehicle: gum acacia) 103 % of control; (dose: 200.0 mg/kg/injection, schedule: Q01DX009 (ip), vehicle: gum acacia) 94 % of control; (dose: 400.0 mg/kg/injection, schedule: Q01DX009 (ip), vehicle: gum acacia) 95 % of control.
With `Cc1cc(N(CCCOS(C)(=O)=O)CCCOS(C)(=O)=O)ccc1C=Nc1cc(Br)c(O)c(Br)c1`, the T/C under setting [14] was 94 % of control; the T/C under setting [12] was 92 % of control; the T/C under setting [15] was 94 % of control; the T/C under setting [13] is 90 % of control; the T/C under setting [16] was 89 % of control; the T/C (dose: 400.0 mg/kg/injection, schedule: Q04DX003 (ip), vehicle: saline with Tween-80) was 94 % of control.
Consider `CCCCCCCCCCCC[Si](CCCCCCCCCCCC)(c1ccccc1)c1ccccc1`, for which the T/C by setting is: under setting [14], 91 % of control; under setting [15], 93 % of control; under setting [16], 96 % of control.
Turning to `CCOC(=O)NC(=O)n1ncnc1N`, the T/C is, setting by setting: (dose: 100.0 mg/kg/injection, schedule: Q04DX003 (ip), vehicle: saline) 108 % of control; (dose: 200.0 mg/kg/injection, schedule: Q04DX003 (ip), vehicle: saline) 103 % of control; (dose: 400.0 mg/kg/injection, schedule: Q04DX003 (ip), vehicle: saline) 94 % of control.
For the molecule `Cc1ccc(NC(=O)OCCOc2c(C(C)C)cccc2C(C)C)c([N+](=O)[O-])c1`, the T/C (dose: 100.0 mg/kg/injection, schedule: Q04DX002 (ip), vehicle: Klucel (hydroxypropylcellulose) (HPC)) is 94 % of control; the T/C (dose: 200.0 mg/kg/injection, schedule: Q04DX002 (ip), vehicle: Klucel (hydroxypropylcellulose) (HPC)) was 96 % of control; the T/C (dose: 400.0 mg/kg/injection, schedule: Q04DX002 (ip), vehicle: Klucel (hydroxypropylcellulose) (HPC)) was 92 % of control.
With `O=C(Cn1ccc(=O)[nH]c1=O)Nc1ccc(C(=O)O)cc1`, the T/C by setting is: under setting [9], 96 % of control; under setting [10], 111 % of control; under setting [11], 96 % of control.
With `Cc1oc2ccc(O)c(N=Nc3ccc(Cl)cc3)c2c1C`, the T/C was 100 % of control under setting [6], 90 % of control under setting [7] and 95 % of control under setting [8].
